Results published in US20050215644A1, “Methods for increasing neurotransmitter levels using hydroxycitric acid” (InterHealth Nutraceuticals, Inc., priority 2004, published 2005).

What was measured:
[1] = tested on: rat brain cortex neurotransmitters; assay: effects of an HCA extract and fluoxetine on rat brain cortex neurotransmitters (reverse phase HPLC with electrochemical detection); format: in vivo; settings: for increase in DOPAC / increase in cortex DA / increase in cortex 5-HT: after 90 days; for increase in DOPAC / increase in cortex DA / increase in cortex 5-HT / decrease in cortex HIAA / decrease in DA / decrease in cortex HVA: p<0.05; for decrease in cortex HIAA / decrease in cortex 5-HT / decrease in DA / decrease in cortex HVA: 15 mg/kg per day oral
Description: […] The 5% HCA dose corresponds to 25-times the recommended dose of HCA. Animals were euthanized after 30, 60 and 90 days. Brain cortices were analyzed for serotonin (5-HT), its metabolite 5-hydroxyindoleacetic acid (HIAA), dopamine (DA), and its metabolites 3, 4-dihydroxyphenylacetic acid (DOPAC) and homovanillic acid (HVA) content utilizing reverse phase HPLC with electrochemical detection.

[2] = tested on: isolated rat brain cortex; settings: cited from earlier work
[3] = first of three values (day 30 by analogy with b27)
[4] = second of three values (day 60 by analogy with b27)
[5] = third of three values (day 90 by analogy with b27)

O=C(O)CC(O)(C(=O)O)C(O)C(=O)O (single isomer, unassigned; (-)) [HCA, (−)-hydroxycitric acid]
increase in DOPAC ([1]; HCA 0.02% oral): 23% | increase in cortex DA ([1]; HCA 0.02% oral): 10% | increase in cortex HVA ([1]; HCA 0.02% oral, day 90, p<0.05): 12% | increase in cortex 5-HT ([1]; HCA 0.2% of diet (10 mg per day) oral): 11% | increase in cortex 5-HT ([1]; HCA 2% of diet (100 mg per day) oral): 9% | increase in DOPAC ([1]; HCA 2% of diet oral): 26% | increase in cortex DA ([1]; HCA 2% of diet oral): 15% | increase in cortex HVA ([1]; HCA 2% of diet oral, day 90, p<0.05): 15% | increase in cortex 5-HT ([1]; HCA 5% of diet (250 mg per day) oral): 12% | increase in DOPAC ([1]; HCA 5% of diet oral): 29% | increase in cortex DA ([1]; HCA 5% of diet oral): 18% | increase in cortex HVA ([1]; HCA 5% of diet oral, day 90, p<0.05): 13% | changes in HIAA ([1]; any of the HCA treatment groups (0.2, 2, 5% of diet; 30, 60, 90 days)): No changes | efflux of 5-HT ([2]; HCA applied on its own): concentration-dependent increase | effect on baseline of spontaneous tritium efflux [2]: altered the baseline | effect on potassium-evoked release of 5-HT [2]: no significant effect

CNCCC(Oc1ccc(C(F)(F)F)cc1)c1ccccc1 (centres unmarked) [fluoxetine, reference compound]
decrease in cortex HIAA ([1]; 30 days post-treatment): 19% | decrease in cortex HIAA ([1]; 60 days post-treatment): 15% | decrease in cortex HIAA ([1]; 90 days post-treatment): 17% | decrease in cortex 5-HT ([1]; day 30, p<0.05): 9% | decrease in cortex 5-HT ([1]; day 60, p<0.05): 7% | decrease in cortex 5-HT ([1]; day 90, p<0.05): 8% | decrease in DA [1, 3]: 18% | decrease in cortex HVA [1, 3]: 17% | decrease in DA [1, 4]: 15% | decrease in cortex HVA [1, 4]: 13% | decrease in DA [1, 5]: 19% | decrease in cortex HVA [1, 5]: 14% | changes in cortex DOPAC ([1]; all fluoxetine groups (15 mg/kg per day oral; 30, 60, 90 days)): No changes
